According to PubChem BioAssay (NCI):
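Growth conditions: 96-well plates. Treatment: test compound, 48 hours, 5 concentrations. Analysis: linear interpolation between bracketing concentrations; unreached endpoints set to highest concentration. GI50: concentration for 50% inhibition of growth. The concentration for full growth arrest is given as TGI.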

What was measured:
Experiment in all cases: DTP human tumour cell line panel, 48 h; in the data active means GI50 below about 0.43 µM; inactive means the rest
[1] = system: MDA-MB-435
[2] = system: EKVX NSCLC
[3] = system: UACC-257 melanoma
[4] = system: MALME-3M melanoma
[5] = system: HOP-62 NSCLC
[6] = system: NCI-H522 lung
[7] = system: CCRF-CEM leukemia
[8] = system: IGROV1 ovarian
[9] = system: SN12C renal
[10] = system: T-47D breast
[11] = system: RPMI-8226 leukemia
[12] = system: OVCAR-4 ovarian
[13] = system: DU-145 prostate
[14] = system: MOLT-4 leukemia
[15] = system: 786-0 renal
[16] = system: LOX IMVI melanoma
[17] = system: NCI/ADR-RES ovarian
[18] = system: NCI-H23 lung
[19] = system: SW-620 colon
[20] = system: SNB-75 CNS
[21] = system: ACHN renal
[22] = system: SF-268 CNS
[23] = system: HCT-15 colon
[24] = system: UO-31 renal
[25] = system: NCI-H460 lung
[26] = system: PC-3 prostate
[27] = system: U251 CNS
[28] = system: M14 melanoma
[29] = system: SK-MEL-28 melanoma
[30] = system: HL-60(TB) leukemia
[31] = system: SK-MEL-5 melanoma
[32] = system: SK-MEL-2 melanoma
[33] = system: HT29 colon
[34] = system: OVCAR-8 ovarian
[35] = system: OVCAR-3 ovarian
[36] = system: BT-549 breast
[37] = system: SK-OV-3 ovarian
[38] = system: NCI-H226 lung
[39] = system: SNB-19 CNS
[40] = system: UACC-62 melanoma
[41] = system: TK-10 renal
[42] = system: OVCAR-5 ovarian
[43] = system: CAKI-1 renal
[44] = system: HOP-92 NSCLC
[45] = system: HS 578T breast
[46] = system: K-562 leukemia
[47] = system: SF-295 CNS
[48] = system: KM12 colon
[49] = system: MCF7 breast
[50] = system: HCT-116 colon
[51] = system: A498 renal
[52] = system: COLO 205 colon
[53] = system: A549 NSCLC
[54] = system: SF-539 CNS
[55] = system: MDA-MB-231 breast
[56] = system: SR leukemia
[57] = system: RXF 393 renal

CC(C)CC1[C@@H](OCc2ccccc2)COS(=O)(=O)N1Cc1ccccc1 (stereo partly drawn)
> 100 µM: TGI [1] | TGI [2] | TGI [3] | TGI [4] | TGI [5] | TGI [6] | TGI [7] | TGI [8] | TGI [9] | TGI [10] | TGI [11] | TGI [12] | TGI [13] | TGI [14] | TGI [15] | TGI [16] | TGI [17] | TGI [19] | TGI [20] | TGI [21] | TGI [22] | TGI [23] | TGI [25] | TGI [26] | TGI [27] | TGI [28] | TGI [29] | TGI [30] | TGI [31] | TGI [32] | TGI [33] | TGI [34] | TGI [35] | TGI [36] | TGI [37] | TGI [38] | TGI [39] | TGI [40] | TGI [41] | TGI [42] | TGI [43] | TGI [44] | TGI [46] | TGI [47] | TGI [48] | TGI [49] | TGI [50] | TGI [51] | TGI [52] | TGI [53] | TGI [54] | TGI [55]
97.6 µM: TGI [24]
70 µM: TGI [45]
75.2 µM: TGI [18]

COc1cccc(-c2nc(-c3ccc(NC(=O)c4ccccc4)cc3)[nH]c2-c2ccnc(Br)c2)c1
2.11 µM: TGI [11]
0.81 µM: TGI [57]
7.45 µM: TGI [30]
12.6 µM: TGI [54]
8.24 µM: TGI [37]
> 100 µM: TGI [1] | TGI [3] | TGI [4] | TGI [5] | TGI [6] | TGI [7] | TGI [8] | TGI [10] | TGI [12] | TGI [14] | TGI [17] | TGI [18] | TGI [19] | TGI [20] | TGI [21] | TGI [22] | TGI [24] | TGI [56] | TGI [25] | TGI [26] | TGI [27] | TGI [28] | TGI [29] | TGI [32] | TGI [33] | TGI [34] | TGI [35] | TGI [36] | TGI [38] | TGI [39] | TGI [40] | TGI [41] | TGI [42] | TGI [44] | TGI [46] | TGI [48] | TGI [49] | TGI [50] | TGI [52] | TGI [53] | TGI [55]
1.75 µM: TGI [45]
2.69 µM: TGI [16]
6.5 µM: TGI [51]
5.88 µM: TGI [15]
3.28 µM: TGI [23]
8.02 µM: TGI [43]
active: GI50 [11] 0.398 µM | GI50 [57] 0.266 µM | GI50 [45] 0.339 µM
3.34 µM: TGI [31]
9.47 µM: TGI [2]
inactive: GI50 [1] 4.72 µM | GI50 [2] 2.18 µM | GI50 [3] 5.34 µM | GI50 [4] 2.86 µM | GI50 [5] 2.82 µM | GI50 [6] 3.17 µM | GI50 [7] 3.15 µM | GI50 [8] 6.96 µM | GI50 [10] 2.44 µM | GI50 [12] 4.9 µM | GI50 [14] 2.7 µM | GI50 [15] 0.702 µM | GI50 [16] 1.13 µM | GI50 [17] 3.55 µM | GI50 [18] 2.82 µM | GI50 [19] 3.77 µM | GI50 [20] 0.815 µM | GI50 [21] 2.95 µM | GI50 [22] 6.13 µM | GI50 [23] 0.78 µM | GI50 [24] 2.93 µM | GI50 [56] 1.94 µM | GI50 [25] 3.53 µM | GI50 [26] 3.25 µM | GI50 [27] 2.1 µM | GI50 [28] 2.91 µM | GI50 [29] 3 µM | GI50 [30] 1.72 µM | GI50 [31] 1.79 µM | GI50 [32] 2.93 µM | GI50 [33] 2.69 µM | GI50 [34] 4.02 µM | GI50 [35] 4.48 µM | GI50 [36] 3.3 µM | GI50 [37] 3.05 µM | GI50 [38] 2.95 µM | GI50 [39] 3.87 µM | GI50 [40] 2.95 µM | GI50 [41] 6.92 µM | GI50 [42] 6.09 µM | GI50 [43] 2.21 µM | GI50 [44] 6.26 µM | GI50 [46] 1.67 µM | GI50 [48] 2.29 µM | GI50 [49] 2.4 µM | GI50 [50] 3.29 µM | GI50 [51] 1.74 µM | GI50 [52] 3.55 µM | GI50 [53] 4.07 µM | GI50 [54] 1.59 µM | GI50 [55] 3.97 µM
